Molecular target: T1, human α2A (α2 -C10)-adrenoceptor (Homo sapiens, UniProt P08913)
T1 construct: expressed in transfected cells; host or cells: S115 cells (recombinant mammalian S115 cell line), crude particulate homogenate
T1 sequence (P08913 1-465): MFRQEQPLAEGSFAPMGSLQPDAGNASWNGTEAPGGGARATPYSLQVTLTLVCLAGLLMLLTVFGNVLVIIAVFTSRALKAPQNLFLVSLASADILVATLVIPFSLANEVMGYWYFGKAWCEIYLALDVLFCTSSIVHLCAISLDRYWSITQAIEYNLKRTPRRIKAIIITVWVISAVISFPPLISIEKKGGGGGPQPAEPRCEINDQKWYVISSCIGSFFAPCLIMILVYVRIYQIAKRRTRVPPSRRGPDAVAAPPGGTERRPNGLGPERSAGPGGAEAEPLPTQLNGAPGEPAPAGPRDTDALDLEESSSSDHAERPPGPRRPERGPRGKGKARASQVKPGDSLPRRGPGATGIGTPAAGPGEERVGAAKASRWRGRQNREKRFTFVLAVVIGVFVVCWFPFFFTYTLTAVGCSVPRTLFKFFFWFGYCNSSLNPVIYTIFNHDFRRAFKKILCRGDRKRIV
Assay: [3H]-rauwolscine radioligand receptor binding (competition) assay, α2A-adrenoceptor
Details: recombinant mammalian S115 cell line; 1 nM [3H]-rauwolscine; 50 mM KH2PO4 pH 7.5; 30 min at 25° C.; read-out: α2A aff (Ki values)
Method: The affinity of the test compounds on the α2 -adrenoceptor was established using the recombinant mammalian S115 cell line expressing the human α2A (α2 -C10)-adrenoceptor (7) in a radioligand receptor binding assay. The cells were harvested and suspended in 30 v/w of 50 mM Tris with 5 mM EDTA (pH 7.5 at 4° C.) and homogenized in Teflon-glass homogenizer. Cell homogenate was then centrifuged twice at 47,800×g (Sorvall RC-5C) for 30 min at 4° C. with re-suspension by two strokes in Tris/EDTA buffer. The final pellet was re-suspended in ten v/w of incubation buffer (50 mM KH2 PO4 buffer, pH 7.5 at 25° C.) and distributed in aliquots to be stored at -80° C. for later use.
In a competition binding experiment, the radioligands were incubated at 1 nM [^3 H]-rauwolscine with the cell suspension (20-50 μg of total protein per tube) with or without presence of a test compound in 50 mM KH2 PO4 (pH 7.5 at 25° C.) in a total volume of 0.25 ml. Non-specific binding of the radioligand was determined using 0.1 mM oxymetazoline. After a 30 min incubation at 25° C., incubation was terminated by rapid filtration through GF/B filters using a cell harvester. Inhibition experiments were analysed using a non-linear regression curve-fitting computer program to obtain Ki values.

Compound	Ki
CN1CCc2cc(OCC3CCCCC3)ccc2C1 [Compound 5i, 6-cyclohexylmethoxy-2-methyl-1,2,3,4-tetrahydroisoquinoline]	977 nM
CCCCCCCCCCCCCCOc1ccc2c(c1)CCN(C)C2 [Compound 5l, 6-tetradecanyloxy-2-methyl-1,2,3,4-tetrahydroisoquinoline]	266 nM
CN1CCc2cccc(OCC3CCCCC3)c2C1 [Compound 5j, 8-cyclohexylmethoxy-2-methyl-1,2,3,4-tetrahydroisoquinoline]	173 nM
CN1CCc2cccc(OCc3ccc(F)c(F)c3)c2C1 [Compound 5f, 8-(3,4-difluorophenylmethoxy)-2-methyl-1,2,3,4-tetrahydroisoquinoline]	490 nM
CCCCCCCCCCCCCCOc1cccc2c1CN(C)CC2 [Compound 5m, 8-tetradecanyloxy-2-methyl-1,2,3,4-tetrahydroisoquinoline]	25000 nM
CN1CCc2cc(OCc3ccc(F)c(F)c3)ccc2C1 [Compound 5e, 6-(3,4-difluorophenylmethoxy)-2-methyl-1,2,3,4-tetrahydroisoquinoline]	1430 nM
CCCCOc1cccc2c1CCN(CCC)C2 [Compound 5g, 5-butoxy-2-propyl-1,2,3,4-tetrahydroisoquinoline]	264 nM
CN1CCc2c(cccc2OCC2CCCCC2)C1 [Compound 5h, 5-cyclohexylmethoxy-2-methyl-1,2,3,4-tetrahydroisoquinoline]	750 nM
CN1CCc2cc(OCCCCCC#N)ccc2C1 [Compound 5c, 6-(5-cyano-1-pentyloxy)-2-methyl-1,2,3,4-tetrahydroisoquinoline]	3710 nM
CN1CCc2c(cccc2OCCCCCC#N)C1 [Compound 5b, 5-(5-cyano-1-pentyloxy)-2-methyl-1,2,3,4-tetrahydroisoquinoline]	1040 nM
CN1CCc2c(cccc2OCc2ccc(F)c(F)c2)C1 [Compound 5d, 5-(3,4-difluorophenylmethoxy)-2-methyl-1,2,3,4-tetrahydroisoquinoline]	318 nM
CCCCCCCCCCCCCCOc1cccc2c1CCN(C)C2 [Compound 5k, 5-tetradecanyloxy-2-methyl-1,2,3,4-tetrahydroisoquinoline]	6480 nM

Reference: patent US6096752A, “Method for the preparation of tertiary amines, a compound useful therefor and alpha-2-receptor active tetrahydroisoquinoline derivatives” (priority 1998, dated 2000)
